Assay results taken from patent publication US5929254A, “1,2-dioxetane derivatives” (Fujirebio Inc., priority 1996, dated 1999).

Columns and labels:
[1] = Chemiluminescence on addition to tetrabutylammonium fluoride in DMSO, measured with a fluorescence analyzer; assay type: physicochemical; conditions: tetrabutylammonium fluoride 1.5×10^-1 M, 25° C.
Experimental: 1 ml of a […] dimethylsulfoxide(DMSO) solution of 4-(4-acetyl-3-hydroxyphenyl)-3,3-(bicyclo[3.3.1]nonan-3,7-diyl)-4-methoxy- 1,2-dioxethane (Compound [10]) synthesized in Example 2 was added to 2 ml of 1.5×10^-1 M DMSO solution of tetrabutylammonium fluoride at 25° C.
The luminescence at the moment of the addition of the compound [10] to the DMSO solution of tetrabutylammonium fluoride was measured with a fluorescence analyzer.
1 ml of a 2.94×10^-3 M dimethylsulfoxide (DMSO) solution of 3,3-(bicyclo[3.3.1]nonan-3,7-diyl)-4-(3-hydroxyphenyl)-4-methoxy-1,2-dioxetane (Comparative Compound) was added to 2 ml of 1.5×10^-1 M DMSO solution of tetrabutylammonium fluoride at 25° C.
The luminescence at the moment of the addition of the comparative compound to the DMSO solution of tetrabutylammonium fluoride was measured with a fluorescence analyzer in the same manner as in Example 1.

[2] = Chemiluminescence on addition to cesium hydroxide in methanol or aqueous methanol, measured with a fluorescence analyzer; assay type: physicochemical; conditions: 25° C.
Experimental: 1 ml of a 3.12×10^-3 M methanol solution of 4-(4-acetyl-3-hydroxyphenyl)-3,3-(bicyclo[3.3.1]nonan-3,7-diyl)-4-methoxy- 1,2-dioxethane (Compound [10]) synthesized in Example 2 was added to 2 ml of a 1.5×10^-1 M methanol solution of cesium hydroxide at 25° C.
The luminescence at the moment of the addition of the compound [10] to the methanol solution of cesium hydroxide was measured with a fluorescence analyzer in the same manner as in Test Example 1.
(§1) The measurement of the luminescence of the compound [10] in Test Example 2 was repeated in the same manner as in Test Example 2 except that the methanol used as the solvent for cesium hydroxide employed in Test Example 2 was replaced by an aqueous solution of methanol (water: 50%) without changing the concentration of cesium in the diluted methanol solution.
Thus, the luminescence at the moment of the addition of the compound [10] to the diluted methanol solution of cesium hydroxide was measured with a fluorescence analyzer in the same manner as in Test Example 1.
as §1, with “97%)” for “50%)”
1 ml of a 3.12×10^-3 M methanol solution of 3,3-(bicyclo[3.3.1]nonan-3,7-diyl)-4-(3-hydroxyphenyl)-4-methoxy-1,2-dioxetane (Comparative Compound) was added to 2 ml of a 1.5×10^-1 M methanol solution of cesium hydroxide at 25° C.
It was tried to measure the luminescence at the moment of the addition of the comparative compound to the methanol solution of cesium hydroxide with a fluorescence analyzer in the same manner as in Test Example 1.
(§2) The measurement of he luminescence of the comparative compound in Comparative Test Example 2 was repeated in the same manner as in Comparative Test Example 2 except that the methanol used as the solvent for cesium hydroxide employed in Comparative Test Example 2 was replaced by an aqueous solution of methanol (water: 50%) without changing the concentration of cesium in the diluted methanol solution.
Thus, the luminescence at the moment of the addition of the comparative compound to the diluted methanol solution of cesium hydroxide was measured with a fluorescence analyzer in the same manner as in Test Example 1.
as §2, with “of the” for “of he”, “(water: 97%)” for “(water: 50%)”

[3] = Aqueous solution of methanol (water: 50%), cesium hydroxide
[4] = Aqueous solution of methanol (water: 97%), cesium hydroxide
[5] = methanol solution of cesium hydroxide, in words
[6] = Methanol, cesium hydroxide 1.5×10^-1 M, compound 3.12×10^-3 M

Row | Compound | Half-life (sec) of Luminescence [1] [s] | Luminescence Quantum Efficiency [1] | λmax (nm) [1] [nm] | Half-life (sec) of Luminescence [2, 3] [s] | Luminescence Quantum Efficiency [2, 3] | λmax (nm) [2, 3] [nm] | Half-life (sec) of Luminescence [2, 4] [s] | Luminescence Quantum Efficiency [2, 4] | λmax (nm) [2, 4] [nm] | half-life of the luminescence [2, 5] | intensity of the luminescence [2, 5] | Half-life (sec) of Luminescence [2, 6] [s] | Luminescence Quantum Efficiency [2, 6] | λmax (nm) [2, 6] [nm]
1 | COC1(c2cccc(O)c2)OOC12C1CC3CC(C1)CC2C3 (centres unmarked) [Comparative Compound, 3,3-(bicyclo[3.3.1]nonan-3,7-diyl)-4-(3-hydroxyphenyl)-4-methoxy-1,2-dioxetane, reference compound] | 5.1 | 0.22 | 465 | 452 | 3.9 × 10^-5 | 472 | 173 | 6.7 × 10^-6 | 474 | extremely long | extremely small |  |  | 
2 | COC1(c2ccc(C(C)=O)c(O)c2)OOC12C1CC3CC(C1)CC2C3 (centres unmarked) [Compound [10], 4-(4-acetyl-3-hydroxyphenyl)-3,3-(bicyclo[3.3.1]nonan-3,7-diyl)-4-methoxy-1,2-dioxethane] | 23000 | 0.13 | 486 | 29000 | 0.023 | 496 | 8200 | 0.0064 | 496 |  |  | 120000 | 0.030 | 493
